Test results published in PubChem BioAssay AID248 (DTP/NCI, 2004).
Values joined by “and” are separate entries in the source; they are usually repeats but may differ in a detail not shown here. Equal entries are not always repeated. Toxic doses and inconclusive results are not listed. Rule as the data show it: active = T/C of 150% or more; inactive = T/C below 125%.

Tested on: L1210 leukemia ip in BDF1 mice, survival T/C
Test: NCI In Vivo Anticancer Drug Screen. Data for tumor model L1210 Leukemia (intraperitoneal) in B6D2F1 (BDF1) mice
Conditions: endpoint: mean survival time, higher = longer survival
Summary of the method: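 Tumor was transplanted into mice, which were then dosed with test compound or vehicle alone. Survival was recorded for each group, and the treated figure was expressed relative to the control figure.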

[1] = dose: 100.0 mg/kg/injection, schedule: Q01DX009 (ip), vehicle: Klucel (hydroxypropylcellulose) (HPC)
[2] = dose: 100.0 mg/kg/injection, schedule: Q04DX003 (ip), vehicle: saline
[3] = dose: 200.0 mg/kg/injection, schedule: Q01DX009 (ip), vehicle: Klucel (hydroxypropylcellulose) (HPC)
[4] = dose: 200.0 mg/kg/injection, schedule: Q04DX003 (ip), vehicle: saline
[5] = dose: 400.0 mg/kg/injection, schedule: Q01DX009 (ip), vehicle: Klucel (hydroxypropylcellulose) (HPC)
[6] = dose: 400.0 mg/kg/injection, schedule: Q04DX003 (ip), vehicle: saline
[7] = dose: 100.0 mg/kg/injection, schedule: Q04DX002 (ip), vehicle: Klucel (hydroxypropylcellulose) (HPC)
[8] = dose: 200.0 mg/kg/injection, schedule: Q04DX002 (ip), vehicle: Klucel (hydroxypropylcellulose) (HPC)
[9] = dose: 400.0 mg/kg/injection, schedule: Q04DX002 (ip), vehicle: Klucel (hydroxypropylcellulose) (HPC)
[10] = dose: 100.0 mg/kg/injection, schedule: Q04DX003 (ip), vehicle: Klucel (hydroxypropylcellulose) (HPC)
[11] = dose: 200.0 mg/kg/injection, schedule: Q04DX003 (ip), vehicle: Klucel (hydroxypropylcellulose) (HPC)
[12] = dose: 400.0 mg/kg/injection, schedule: Q04DX003 (ip), vehicle: Klucel (hydroxypropylcellulose) (HPC)
[13] = dose: 100.0 mg/kg/injection, schedule: Q01DX001 (ip), vehicle: saline
[14] = dose: 200.0 mg/kg/injection, schedule: Q01DX001 (ip), vehicle: saline
[15] = dose: 400.0 mg/kg/injection, schedule: Q01DX001 (ip), vehicle: saline
[16] = dose: 100.0 mg/kg/injection, schedule: Q01DX001 (ip), vehicle: carboxymethylcellulose (CMC)
[17] = dose: 200.0 mg/kg/injection, schedule: Q01DX001 (ip), vehicle: carboxymethylcellulose (CMC)
[18] = dose: 400.0 mg/kg/injection, schedule: Q01DX001 (ip), vehicle: carboxymethylcellulose (CMC)
[19] = dose: 100.0 mg/kg/injection, schedule: Q04DX003 (ip), vehicle: saline with Tween-80
[20] = dose: 200.0 mg/kg/injection, schedule: Q04DX003 (ip), vehicle: saline with Tween-80
[21] = dose: 100.0 mg/kg/injection, schedule: Q01DX001 (ip), vehicle: Klucel (hydroxypropylcellulose) (HPC)
[22] = dose: 200.0 mg/kg/injection, schedule: Q01DX001 (ip), vehicle: Klucel (hydroxypropylcellulose) (HPC)
[23] = dose: 400.0 mg/kg/injection, schedule: Q01DX001 (ip), vehicle: Klucel (hydroxypropylcellulose) (HPC)

Measured: T/C

Nc1ccc2c(O)c(N=Nc3ccc4c(O)cc(S(=O)(=O)O)cc4c3)c(S(=O)(=O)O)cc2c1
inactive: [1] 100 % of control | [2] 96 % of control | [3] 112 % of control | [4] 100 % of control | [5] 88 % of control | [6] 94 % of control

O=C1OC(=O)C2C3OC(C(Br)C3Br)C12 (centres undefined)
inactive: dose: 16.0 mg/kg/injection, schedule: Q04DX003 (ip), vehicle: saline 100 % of control | dose: 37.5 mg/kg/injection, schedule: Q04DX003 (ip), vehicle: saline 95 % of control | dose: 50.0 mg/kg/injection, schedule: Q04DX003 (ip), vehicle: saline 101 % of control | [2] 100 % of control and 90 % of control

CN(Cc1ccccc1)C(=O)C(Cl)Cl
inactive: [7] 103 % of control | [8] 117 % of control | [9] 109 % of control

CCOC(=O)/C(C#N)=C\c1ccc(N(C)C)cc1
inactive: dose: 100.0 mg/kg/injection, schedule: Q01DX Z (ip), vehicle: methylcellulose (MC) 106 % of control | dose: 200.0 mg/kg/injection, schedule: Q01DX Z (ip), vehicle: methylcellulose (MC) 108 % of control

Cc1cc(F)ccc1OCC(=O)Oc1ccc([N+](=O)[O-])cc1
inactive: [7] 108 % of control | [8] 101 % of control | [9] 111 % of control

C(=N\Nc1nc2ccccc2s1)/c1ccc2ccccc2n1
inactive: [1] 96 % of control | [3] 96 % of control

O=C(O)CCCCCCC1CCCC1=O (centres undefined)
inactive: dose: 100.0 mg/kg/injection, schedule: Q01DX009 (ip), vehicle: saline sonified 97 % of control | dose: 200.0 mg/kg/injection, schedule: Q01DX009 (ip), vehicle: saline sonified 91 % of control | dose: 400.0 mg/kg/injection, schedule: Q01DX009 (ip), vehicle: saline sonified 97 % of control

CC1CN1CCC(=O)Nc1ccc(Cl)c(Cl)c1 (centres undefined)
inactive: dose: 50.0 mg/kg/injection, schedule: Q04DX003 (ip), vehicle: Klucel (hydroxypropylcellulose) (HPC) 97 % of control | [10] 105 % of control | [11] 100 % of control | [12] 106 % of control

O=[N+]([O-])c1ccc(/C=C/CCOc2ccccc2)cc1
inactive: [1] 98 % of control | [10] 97 % of control | [3] 96 % of control | [11] 105 % of control | [5] 91 % of control | [12] 105 % of control

CCCC[CH2][Sn]([CH2]CCCC)[CH2]CCCC.CCCC[CH2][Sn]([CH2]CCCC)[CH2]CCCC
inactive: dose: 100.0 mg/kg/injection, schedule: Q04DX002 (sc), vehicle: olive oil, sesame oil, peanut oil 115 % of control | dose: 200.0 mg/kg/injection, schedule: Q04DX002 (sc), vehicle: olive oil, sesame oil, peanut oil 99 % of control | dose: 400.0 mg/kg/injection, schedule: Q04DX002 (sc), vehicle: olive oil, sesame oil, peanut oil 105 % of control

CC1CN(c2ccc([N+](=O)[O-])cc2)C(C)CN1N=O (centres undefined)
inactive: dose: 25.0 mg/kg/injection, schedule: Q01DX009 (ip), vehicle: saline 106 % of control | dose: 50.0 mg/kg/injection, schedule: Q01DX009 (ip), vehicle: saline 104 % of control | dose: 100.0 mg/kg/injection, schedule: Q01DX009 (ip), vehicle: saline 98 % of control | dose: 200.0 mg/kg/injection, schedule: Q01DX009 (ip), vehicle: saline 97 % of control | dose: 400.0 mg/kg/injection, schedule: Q01DX009 (ip), vehicle: saline 95 % of control

COCCCNP(=S)(OC)OC
inactive: dose: 100.0 mg/kg/injection, schedule: Q01DX001 (ip), vehicle: other 98 % of control | dose: 100.0 mg/kg/injection, schedule: Q04DX003 (ip), vehicle: other 98 % of control | dose: 200.0 mg/kg/injection, schedule: Q01DX001 (ip), vehicle: other 105 % of control | dose: 200.0 mg/kg/injection, schedule: Q04DX003 (ip), vehicle: other 98 % of control | dose: 400.0 mg/kg/injection, schedule: Q01DX001 (ip), vehicle: other 94 % of control | dose: 400.0 mg/kg/injection, schedule: Q04DX003 (ip), vehicle: other 101 % of control

N#CCC1=CC(=O)C(=O)c2ccccc21
inactive: [13] 102 % of control | [14] 102 % of control | [15] 100 % of control

CSc1nc(N)c(N=Nc2ccc(S(=O)(=O)Nc3nccs3)cc2)c(=O)[nH]1
inactive: [16] 92 % of control | [17] 92 % of control | [18] 92 % of control

CCCCCCCCc1nc2c([nH]1)c(=O)n(C)c(=O)n2C
inactive: dose: 50.0 mg/kg/injection, schedule: Q01DX001 (ip), vehicle: saline 87 % of control | [13] 90 % of control | [14] 90 % of control | [15] 102 % of control

Cc1cc(C)c(S(=O)(=O)NN)c(C)c1
inactive: [19] 94 % of control | [20] 90 % of control

Nc1cccc(OCCCCCOc2cccc(N)c2)c1
inactive: [1] 93 % of control | [3] 96 % of control

CC1C(N2CCCCC2)CS1(=O)=O (centres undefined)
inactive: dose: 100.0 mg/kg/injection, schedule: Q04DX002 (ip), vehicle: saline 121 % of control

O=[N+]([O-])c1cc(Cl)cc2c1-c1c(Cl)cc(Cl)cc1C2O (centres undefined)
inactive: [1] 91 % of control | [10] 104 % of control | [3] 104 % of control | [11] 103 % of control | [12] 97 % of control

CC1(C)OB(C(B2OC(C)(C)C(C)(C)O2)=C(CCl)CCl)OC1(C)C
inactive: [21] 101 % of control | [22] 88 % of control | [23] 103 % of control

CC1(O)C=CCC1 (centres undefined)
inactive: dose: 75.0 mg/kg/injection, schedule: Q01DX001 (ip), vehicle: carboxymethylcellulose (CMC) 104 % of control | dose: 150.0 mg/kg/injection, schedule: Q01DX001 (ip), vehicle: carboxymethylcellulose (CMC) 102 % of control

O=C1OC(=O)c2c1ccc1ccc(Cl)cc21
inactive: [19] 94 % of control | [20] 94 % of control | dose: 400.0 mg/kg/injection, schedule: Q04DX003 (ip), vehicle: saline with Tween-80 102 % of control

Nc1nc2ncc(CNc3ccc(CCC(=O)NC(CCC(=O)O)C(=O)O)cc3)nc2c(=O)[nH]1 (centres undefined)
inactive: dose: 50.0 mg/kg/injection, schedule: Q01DX001 (ip), vehicle: saline with Tween-80 108 % of control | dose: 100.0 mg/kg/injection, schedule: Q01DX001 (ip), vehicle: saline with Tween-80 100 % of control | dose: 200.0 mg/kg/injection, schedule: Q01DX001 (ip), vehicle: saline with Tween-80 101 % of control

Cc1ccnc(NC(=O)Nc2ccccc2F)c1
inactive: [13] 97 % of control and 106 % of control | dose: 100.0 mg/kg/injection, schedule: Q01DX009 (ip), vehicle: saline with Tween-80 92 % of control | [2] 95 % of control | [14] 101 % of control | dose: 200.0 mg/kg/injection, schedule: Q01DX009 (ip), vehicle: saline with Tween-80 96 % of control | [4] 101 % of control | [15] 97 % of control and 88 % of control | dose: 400.0 mg/kg/injection, schedule: Q01DX009 (ip), vehicle: saline with Tween-80 91 % of control | [6] 101 % of control

OCC1c2ccccc2C(CO)c2c1ccc1ccccc21 (centres undefined)
inactive: [21] 98 % of control | [22] 98 % of control | [23] 100 % of control

CC(C)(CO)N=Cc1ccc(O)cc1O
inactive: [16] 96 % of control | [17] 93 % of control | [18] 91 % of control

CCCCP(=O)(CCCC)Oc1cccc([N+](=O)[O-])c1
inactive: dose: 25.0 mg/kg/injection, schedule: Q04DX003 (ip), vehicle: saline with Tween-80 97 % of control | dose: 50.0 mg/kg/injection, schedule: Q04DX003 (ip), vehicle: saline with Tween-80 96 % of control | [19] 95 % of control and 102 % of control

CCOC(=O)Nc1nc2nc[nH]c2c(NC(c2ccccc2)c2ccccc2)c1Br
inactive: [7] 91 % of control | [8] 91 % of control | [9] 86 % of control
